# Assay results as given in patent US12065442B2, “Tropomyosin receptor kinase (TRK) degradation compounds and methods of use” (Cullgen (Shanghai), Inc., priority 2018, dated 2024).
# Entries after “also recorded” stand apart in the source; their conditions may differ. Read-outs that look alike come from different tables or passages of the source.
# Key:
# [1] = test system: KM12 cells; assay: Cell viability assay (CellTiter-Glo) in KM12 cells; format: cell-based; details: for IC50: Homo sapiens, 72 h, KM12 cell viability, CellTiter-Glo, 3 days, read-out: IC50
# [2] = molecular target: T1, TPM3-TRKA fusion protein (Homo sapiens, UniProt P04629+P06753+Q96SW2); assay: Immunoblotting of TPM3-TRKA fusion protein in KM12 cells; format: cell-based; design: The resulted chimeric proteins always retain the kinase domain of TRK proteins; TPM3 (N-terminal fusion partner, natural gene fusion); endogenous in cells; host or cells: KM12 colon cancer cells
# Method: Specific exemplary bivalent compounds were characterized in KM12 cells. […] Cells were collected, lysed and subject to immunoblotting using an antibody specific to TRK proteins. GAPDH was included as the loading control. DMSO was used as the negative control.
# KM12 cells were treated with DMSO or indicated compounds at 100 nM for 16 hours.
# KM12 cells were treated with CPD-027, CPD-053, and CPD-060 at 100 nM for indicated incubation time. […]
# KM12 or HEL cells were treated with a dose range of compound TR-123 or TR-123-negative. The latter lost binding to cereblon (CRBN) due to a chemical modification.
# KM12 or HEL cells were treated with a single dose of compound TR-123 or combination with MG-132, Bortezomib, MLN4924 or Pomalidomide. […]
# (§1) Cultured cells were washed with cold PBS once and lysed in cold RIPA buffer supplemented with protease inhibitors and phosphatase inhibitors (Beyotime Biotechnology). The solutions were then incubated at 4° C. for 30 minutes with gentle agitation to fully lyse cells. For tumor tissues, tumors were cut into small pieces, milled with cold RIPA buffer using a mechanical homogenizer and lysed for 1 hour at 4° C. Cell lysates were centrifuged at 13,000 rpm for 10 minutes at 4° C. and pellets were discarded. Total protein concentrations in the lysates were determined by BCA assays (Beyotime Biotechnology). Cell lysates were mixed with Laemmli loading buffer to 1× and heated at 99° C. for 5 min. Proteins were resolved on SDS-PAGE and visualized by chemiluminescence. Images were taken by a ChemiDoc MP Imaging system (Bio-Rad). Protein bands were quantitated using the software provided by Bio-Rad.
# [3] = molecular target: T1, TPM3-TRKA fusion protein; assay: Immunoblotting of TPM3-TRKA in KM12 subcutaneous xenograft tumors; format: in vivo, Athymic nude mice; design: The resulted chimeric proteins always retain the kinase domain of TRK proteins; TPM3 (N-terminal fusion partner, natural gene fusion); from tissue; host or cells: KM12 subcutaneous xenograft tumors in athymic nude mice
# Method: In addition to cultured cells, athymic nude mice bearing KM12 subcutaneous xenograft tumors at the right flank were intraperitoneally treated with 10, 20, or 50 mg/kg CPD-053, CPD-027, or CPD-060. Four hours after drug administration, animals were sacrificed for immunoblotting of TPM3-TPKA in homogenized xenograft tumor masses. The label “a” or “b” represents two different samples of the same xenograft tumor.
# Athymic nude mice bearing KM12 subcutaneous xenograft tumors at the right flank were intraperitoneally treated with 10, 20, or 50 mg/kg CPD-053, CPD-027, or CPD-060, as indicated in FIG. 3. Four hours after drug administration, animals were sacrificed for immunoblotting of TPM3-TPKA in homogenized xenograft tumor chunks. The label “a” or “b” represents two different chunks of the same xenograft tumor.
# Athymic nude mice bearing KM12 subcutaneous xenograft tumors at the right flank were intraperitoneally or orally treated with bivalent compounds at indicated dose. Eight hours after drug administration, animals were sacrificed for immunoblotting of TPM3-TPKA in homogenized xenograft tumor samples.
# as §1
# (§2) All animal experiments were performed under protocols approved by the Institutional Animal Care and Use Committee (IACUC) of Cullgen. Athymic nude mice (male, 5-weeks old) received 5 million KM12 cells subcutaneously inoculated at the right flank site. Ten days following inoculation, tumors were approximately 500 mm3 in size. Tumor-bearing mice were treated intraperitoneally with vehicle or bivalent compounds at indicated doses. Tumor sizes and body weight of mice were measured every 2 days. In addition, immunoblotting assays were employed to assess the levels of TRKA fusion proteins in xenograft tumors around 500 mm^3 in size following drug administration. At indicated hours after drug administration, selected mice were sacrificed, tumors were resected. Small chunks of tumors were homogenized for immunoblotting of TPM3-TPKA and other proteins as indicated.
# [4] = test system: KRAS-mutant H358 cells; assay: Cell viability assay (CellTiter-Glo) in H358 cells; format: cell-based; details: 1000 nM, 8-point 3-fold serial dilution, 3 days (FIG. 4B)
# Method: The kinase activity of TRK is known to play important roles in tumors expressing TRK-fusion proteins, as TRK kinase inhibitors compromise cell proliferation, survival, and induce marked clinical responses (Amatu et al., 2016; Drilon et al., 2018; Drilon et al., 2017; Khotskaya et al., 2017). […] Three days after treatment, cell viability was determined using the CellTiter-Glo kit following manufacturer's instructions. Cell viability was normalized to the mean values of 3 replicates of untreated cells. Dose-dependent response was analyzed following the least-squares non-linear regression method using the GraphPad Prism 5.0 software. Each data point in the figure represents the mean values of three technical replicates±standard deviation. […] More specifically, all bivalent compounds that had IC50 values smaller than 1000 nM in KM12 cells induced degradation of TPM3-TRKA (FIG. 1 and Table 2-4). […]
# Cells were seeded at a density of 5000 cells per well in 96-well assay plates and treated with test compounds following a 12-point 2-fold serial dilution or a 8-point 3-fold dilution. Three days later, cell viability was determined using the CellTiter-Glo assay kit (Promega) according to the manufacturer's instructions. The dose-response curves were determined and IC50 values were calculated using the GraphPad Prism software following a nonlinear regression (least squares fit) method.
# [5] = test system: KM12 subcutaneous xenograft tumors; assay: KM12 subcutaneous xenograft tumor growth study; format: in vivo, Athymic nude mice; details: 10-20 mg/kg qd or bid via oral gavage (FIG. 15A)
# Method: (§3) Athymic nude mice bearing KM12 subcutaneous xenograft tumors at the right flank were intraperitoneally treated with vehicle or 25 mg/kg CPD-060 once per day (qd), twice per day (bid), or once every two days (q2d). Tumor volumes were assessed every two days and expressed as length×width×width/2. Body weights of experimental mice were also measured to assess the toxicity of compounds.
# (§4) Athymic nude mice bearing KM12 subcutaneous xenograft tumors at the right flank were treated with vehicle, 10-20 mg/kg TR-181 or TR-198 once per day (qd), or twice per day (bid) via oral gavage. Tumor volumes were assessed every two days and expressed as length×width×width/2. Body weights of experimental mice were also measured to assess the toxicity of compounds.
# as §2
# [6] = Body weight of xenograft-bearing mice (toxicity); format: in vivo, Athymic nude mice; details: 10-20 mg/kg qd or bid via oral gavage (FIG. 15B)
# Method: as §3, §4, §2
# [7] = test system: monoiodoacetate-induced osteoarthritis; assay: Monoiodoacetate-induced osteoarthritis pain model in guinea pigs; format: in vivo; details: 20 mg/kg i.p., single dose, 6 hours following treatment (FIG. 16B)
# [8] = test system: monoiodoacetate-induced osteoarthritis; assay: Monoiodoacetate-induced osteoarthritis pain model in rats; format: in vivo, Sprague Dawley rats; details: 20 mg/kg i.p., single dose, 6 hours following treatment (FIG. 16A)
# T1 sequence (P06753+P04629 fused): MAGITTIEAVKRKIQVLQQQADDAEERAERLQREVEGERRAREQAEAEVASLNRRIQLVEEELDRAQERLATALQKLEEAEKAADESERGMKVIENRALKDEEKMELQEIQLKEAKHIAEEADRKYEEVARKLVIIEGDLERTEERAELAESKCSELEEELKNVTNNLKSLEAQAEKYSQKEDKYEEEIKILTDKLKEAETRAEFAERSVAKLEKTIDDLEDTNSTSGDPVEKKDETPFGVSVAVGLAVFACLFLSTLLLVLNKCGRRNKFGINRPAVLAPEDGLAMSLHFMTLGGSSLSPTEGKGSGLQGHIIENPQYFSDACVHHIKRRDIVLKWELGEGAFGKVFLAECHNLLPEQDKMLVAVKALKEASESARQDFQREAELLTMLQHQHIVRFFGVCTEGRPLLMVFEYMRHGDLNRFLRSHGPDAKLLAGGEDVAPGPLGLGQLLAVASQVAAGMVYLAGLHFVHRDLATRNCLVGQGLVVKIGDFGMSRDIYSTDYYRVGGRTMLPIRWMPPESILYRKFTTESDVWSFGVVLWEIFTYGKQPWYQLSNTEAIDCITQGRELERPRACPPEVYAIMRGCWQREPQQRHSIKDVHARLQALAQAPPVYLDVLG
# T1 sequence (Q96SW2 whole entry, the tested form may be a part): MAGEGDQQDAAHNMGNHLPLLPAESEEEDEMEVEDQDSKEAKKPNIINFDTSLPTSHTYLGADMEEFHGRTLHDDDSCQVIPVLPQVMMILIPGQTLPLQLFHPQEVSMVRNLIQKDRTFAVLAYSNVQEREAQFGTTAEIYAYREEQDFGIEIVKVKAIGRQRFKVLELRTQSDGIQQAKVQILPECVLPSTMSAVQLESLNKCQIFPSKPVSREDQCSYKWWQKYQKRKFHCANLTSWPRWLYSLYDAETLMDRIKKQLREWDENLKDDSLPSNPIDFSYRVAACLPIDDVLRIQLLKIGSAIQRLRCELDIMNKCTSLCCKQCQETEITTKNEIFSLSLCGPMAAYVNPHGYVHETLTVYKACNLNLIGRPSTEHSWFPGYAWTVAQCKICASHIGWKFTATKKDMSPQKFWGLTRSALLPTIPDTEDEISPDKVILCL
# T1 sequence (Q16531 whole entry partner, the tested form may be a part): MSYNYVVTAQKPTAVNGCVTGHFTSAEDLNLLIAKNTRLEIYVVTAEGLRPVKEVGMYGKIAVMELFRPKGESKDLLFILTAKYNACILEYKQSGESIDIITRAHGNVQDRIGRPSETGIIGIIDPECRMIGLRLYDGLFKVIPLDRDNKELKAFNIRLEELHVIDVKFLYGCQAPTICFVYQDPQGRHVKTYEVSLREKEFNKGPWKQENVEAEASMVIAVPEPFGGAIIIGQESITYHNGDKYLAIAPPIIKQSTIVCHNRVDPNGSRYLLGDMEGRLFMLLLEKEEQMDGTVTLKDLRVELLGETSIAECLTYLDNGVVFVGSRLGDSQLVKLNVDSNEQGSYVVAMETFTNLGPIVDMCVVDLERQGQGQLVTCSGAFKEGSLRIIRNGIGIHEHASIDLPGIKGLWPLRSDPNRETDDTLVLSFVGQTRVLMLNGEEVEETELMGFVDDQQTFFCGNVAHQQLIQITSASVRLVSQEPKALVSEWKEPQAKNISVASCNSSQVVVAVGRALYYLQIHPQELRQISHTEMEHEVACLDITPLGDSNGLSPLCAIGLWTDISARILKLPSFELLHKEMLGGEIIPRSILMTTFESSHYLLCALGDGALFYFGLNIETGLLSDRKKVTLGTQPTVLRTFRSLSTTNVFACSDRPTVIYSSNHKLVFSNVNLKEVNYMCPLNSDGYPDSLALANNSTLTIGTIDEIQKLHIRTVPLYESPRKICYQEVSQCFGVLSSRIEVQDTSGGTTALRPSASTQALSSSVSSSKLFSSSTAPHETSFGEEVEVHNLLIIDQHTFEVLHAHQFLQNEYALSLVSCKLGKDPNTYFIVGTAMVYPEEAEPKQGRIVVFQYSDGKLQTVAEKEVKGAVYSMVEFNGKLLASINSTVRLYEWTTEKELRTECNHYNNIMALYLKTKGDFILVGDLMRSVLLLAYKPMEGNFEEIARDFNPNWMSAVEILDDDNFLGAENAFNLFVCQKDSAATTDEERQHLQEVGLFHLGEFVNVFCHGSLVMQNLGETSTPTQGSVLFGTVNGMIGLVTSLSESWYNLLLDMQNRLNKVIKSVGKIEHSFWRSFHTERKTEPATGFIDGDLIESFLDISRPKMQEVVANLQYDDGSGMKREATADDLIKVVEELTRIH
time after adding compound at which significant degradation of TPM3-TRKA was detected ([2]; 100 nM (FIG. 2)),"TPM3-TRKA protein levels, time course ([2]; 100 nM, indicated incubation time (FIG. 2))",Structure (SMILES),"viability of KM12 cells ([1]; 500 nM, 12-point 2-fold serial dilution, 3 days (FIG. 4A))","viability of KM12 cells ([1]; 1000 nM, 8-point 3-fold serial dilution, 3 days (FIG. 4B))",IC50 ([1]; Table 2),"TPM3-TRKA protein levels ([2]; 100 nM, 16 hours (FIG. 1A-1C))","TPM3-TRKA protein levels in KM12 subcutaneous xenograft tumors ([3]; 10, 20, or 50 mg/kg intraperitoneally, single dose, four hours after administration (FIG. 3))",viability of H358 cells [4],IC50 ([1]; Table 3),growth of KM12 subcutaneous xenograft tumors [5],"TPM3-TRKA degradation in KM12 subcutaneous tumors ([3]; intraperitoneal or oral administration, eight hours after administration (FIG. 10))",body weight [6],analgesic activity (percentage of weight born on the injured limb) [7],analgesic activity (percentage of weight born on the injured limb) [8]
15 min,rapidly reduced TPM3-TRKA protein levels,"O=C1CCC(N2C(=O)c3cccc(NCCCC(=O)N4CCN(c5ccc(C(=O)Nc6n[nH]c7ccc(Cc8cc(F)cc(F)c8)cc67)c(NC6CCOCC6)c5)CC4)c3C2=O)C(=O)N1 (centres unmarked) [CPD-053, N-(5-(3,5-Difluorobenzyl)-1H-indazol-3-yl)-4-(4-(4-((2-(2,6-dioxopiperidin-3-yl)-1,3-dioxoisoindolin-4-yl)amino)butanoyl)piperazin-1-yl)-2-((tetrahydro-2H-pyran-4-yl)amino)benzamide]",inhibited the viability; also recorded: dose-dependently suppressed viability,significantly inhibited the viability,1.5 nM,particularly effective in reducing TPM3-TRKA protein levels,significantly reducing TPM3-TRKA protein levels,did not affect cell viability,,,,,,
,,"O=C1CCC(N2C(=O)c3ccc(NCCN4CCN(c5cccc(-c6cnc7ccc(N8CCC[C@@H]8c8cccc(F)c8)nn67)n5)CC4)cc3C2=O)C(=O)N1 (stereo partly drawn) [TR-181, 2-(2,6-dioxopiperidin-3-yl)-5-((2-(4-(6-(6-((R)-2-(3-fluorophenyl)pyrrolidin-1-yl)imidazo[1,2-b]pyridazin-3-yl)pyridin-2-yl)piperazin-1-yl)ethyl)amino)isoindoline-1,3-dione]",,,,,,,3.4 nM,significant in vivo anti-tumor activity; also recorded: significantly repressed the growth,exhibited the activities to induce TPM3-TRKA degradation,without inducing substantial weight losses,significant analgesic activity,significant analgesic activity
